Results as given in publication PMC12281424, “A Rac-specific competitive inhibitor of guanine nucleotide binding reduces metastasis in triple-negative breast cancer” (Cell Reports Medicine, 2025).

Key:
[1] = test system: GABAA, Ro-15-1788, Hippocampus; assay: Safety screen; type: binding, rat
Method: Blood cell counts, kinase profiler, safety screen, bacterial cytotoxicity, Ames, micronucleus assays were performed by the company Eurofins (France).

JAK1(h) = JAK1(h) (Homo sapiens, UniProt P23458); assay: Kinase Profiler; type: biochemical
Method: (§4) The kinase profiler was performed by the company Eurofins (Discovery, Panlab and Cerep).

MST2(h) = MST2(h) (Homo sapiens, UniProt Q13188); assay: Kinase Profiler; type: biochemical
Method: (§5) Blood cell counts, kinase profiler, safety screen, bacterial cytotoxicity, Ames, micronucleus assays were performed by the company Eurofins (France). The kinase profiler was performed by the company Eurofins (Discovery, Panlab and Cerep).

SAPK2a(h) = SAPK2a(h) (Homo sapiens, UniProt Q16539); assay: Kinase Profiler; type: biochemical
SAPK2a(h), sequence (Q16539 whole entry): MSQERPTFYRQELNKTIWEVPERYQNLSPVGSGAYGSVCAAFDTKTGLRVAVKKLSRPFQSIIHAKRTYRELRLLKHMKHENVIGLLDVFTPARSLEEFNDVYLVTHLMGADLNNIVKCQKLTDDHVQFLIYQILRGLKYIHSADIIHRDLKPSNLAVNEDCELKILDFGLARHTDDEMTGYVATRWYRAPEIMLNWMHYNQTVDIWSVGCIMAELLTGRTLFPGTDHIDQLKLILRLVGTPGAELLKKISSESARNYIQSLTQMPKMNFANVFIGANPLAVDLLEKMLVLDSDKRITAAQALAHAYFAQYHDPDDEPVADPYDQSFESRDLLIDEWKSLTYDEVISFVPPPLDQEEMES
Method: as §4

MYO3B(h) = MYO3B(h) (Homo sapiens, UniProt Q8WXR4); assay: Kinase Profiler; type: biochemical
MYO3B(h), sequence (Q8WXR4 whole entry): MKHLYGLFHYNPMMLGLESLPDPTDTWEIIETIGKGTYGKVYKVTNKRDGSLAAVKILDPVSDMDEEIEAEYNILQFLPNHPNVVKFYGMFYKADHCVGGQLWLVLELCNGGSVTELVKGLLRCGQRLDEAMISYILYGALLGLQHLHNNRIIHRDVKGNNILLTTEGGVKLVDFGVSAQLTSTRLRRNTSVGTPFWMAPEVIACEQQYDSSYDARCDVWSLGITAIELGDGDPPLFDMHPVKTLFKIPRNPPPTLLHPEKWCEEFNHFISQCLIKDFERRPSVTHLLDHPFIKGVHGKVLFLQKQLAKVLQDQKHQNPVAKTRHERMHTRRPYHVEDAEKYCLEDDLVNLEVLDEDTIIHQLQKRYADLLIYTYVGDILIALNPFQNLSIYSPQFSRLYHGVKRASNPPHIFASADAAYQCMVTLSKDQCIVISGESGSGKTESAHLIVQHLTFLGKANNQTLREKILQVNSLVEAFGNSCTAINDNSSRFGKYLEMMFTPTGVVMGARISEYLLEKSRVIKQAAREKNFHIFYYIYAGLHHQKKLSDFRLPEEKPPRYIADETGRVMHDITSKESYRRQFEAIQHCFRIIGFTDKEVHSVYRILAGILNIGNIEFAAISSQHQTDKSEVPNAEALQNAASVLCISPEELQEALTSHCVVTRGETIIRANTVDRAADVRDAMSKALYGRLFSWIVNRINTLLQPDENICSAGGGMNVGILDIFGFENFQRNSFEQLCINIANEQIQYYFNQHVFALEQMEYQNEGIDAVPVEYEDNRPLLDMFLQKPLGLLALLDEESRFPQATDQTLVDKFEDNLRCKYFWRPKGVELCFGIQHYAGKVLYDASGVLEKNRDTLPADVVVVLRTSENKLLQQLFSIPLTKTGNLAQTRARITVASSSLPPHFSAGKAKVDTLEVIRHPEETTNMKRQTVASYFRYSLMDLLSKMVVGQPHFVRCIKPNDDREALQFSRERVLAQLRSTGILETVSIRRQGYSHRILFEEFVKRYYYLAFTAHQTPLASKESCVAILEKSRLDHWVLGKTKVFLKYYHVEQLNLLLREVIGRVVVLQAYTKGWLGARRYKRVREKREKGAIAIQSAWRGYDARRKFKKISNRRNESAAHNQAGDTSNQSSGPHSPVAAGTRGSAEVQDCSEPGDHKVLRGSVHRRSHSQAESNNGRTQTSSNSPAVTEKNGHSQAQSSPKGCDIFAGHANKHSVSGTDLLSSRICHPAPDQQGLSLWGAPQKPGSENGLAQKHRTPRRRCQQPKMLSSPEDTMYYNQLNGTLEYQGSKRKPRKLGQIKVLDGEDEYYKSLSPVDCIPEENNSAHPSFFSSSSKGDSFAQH
Method: as §4

CDK14/cyclinY(h) = CDK14/cyclinY(h) (Homo sapiens, UniProt O94921); assay: Kinase Profiler; type: biochemical
CDK14/cyclinY(h), sequence (O94921 whole entry): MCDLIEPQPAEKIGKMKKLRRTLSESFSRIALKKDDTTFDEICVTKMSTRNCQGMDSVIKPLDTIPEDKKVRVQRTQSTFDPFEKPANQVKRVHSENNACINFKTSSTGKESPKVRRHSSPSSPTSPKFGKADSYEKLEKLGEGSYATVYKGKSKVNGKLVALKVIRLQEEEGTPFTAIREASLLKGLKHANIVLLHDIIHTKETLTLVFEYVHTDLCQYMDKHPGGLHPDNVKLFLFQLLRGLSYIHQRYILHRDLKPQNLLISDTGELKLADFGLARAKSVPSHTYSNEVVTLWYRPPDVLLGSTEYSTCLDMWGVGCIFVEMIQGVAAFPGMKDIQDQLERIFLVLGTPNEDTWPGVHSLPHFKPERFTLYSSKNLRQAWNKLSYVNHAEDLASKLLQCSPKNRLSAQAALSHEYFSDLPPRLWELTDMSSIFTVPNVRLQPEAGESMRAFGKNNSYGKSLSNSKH
CDK14/cyclinY(h), sequence (Q8ND76 whole entry partner): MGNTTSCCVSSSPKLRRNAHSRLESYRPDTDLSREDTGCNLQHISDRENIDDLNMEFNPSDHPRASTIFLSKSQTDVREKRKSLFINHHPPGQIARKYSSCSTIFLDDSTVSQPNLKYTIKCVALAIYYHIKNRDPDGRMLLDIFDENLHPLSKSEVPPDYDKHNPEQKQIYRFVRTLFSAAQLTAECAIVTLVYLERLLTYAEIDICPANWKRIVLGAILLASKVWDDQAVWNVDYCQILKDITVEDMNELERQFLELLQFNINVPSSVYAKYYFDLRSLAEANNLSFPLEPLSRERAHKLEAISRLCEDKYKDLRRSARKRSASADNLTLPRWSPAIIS
Method: as §5

NEK11(h) = NEK11(h) (Homo sapiens, UniProt Q8NG66); assay: Kinase Profiler; type: biochemical
NEK11(h), sequence (Q8NG66 whole entry): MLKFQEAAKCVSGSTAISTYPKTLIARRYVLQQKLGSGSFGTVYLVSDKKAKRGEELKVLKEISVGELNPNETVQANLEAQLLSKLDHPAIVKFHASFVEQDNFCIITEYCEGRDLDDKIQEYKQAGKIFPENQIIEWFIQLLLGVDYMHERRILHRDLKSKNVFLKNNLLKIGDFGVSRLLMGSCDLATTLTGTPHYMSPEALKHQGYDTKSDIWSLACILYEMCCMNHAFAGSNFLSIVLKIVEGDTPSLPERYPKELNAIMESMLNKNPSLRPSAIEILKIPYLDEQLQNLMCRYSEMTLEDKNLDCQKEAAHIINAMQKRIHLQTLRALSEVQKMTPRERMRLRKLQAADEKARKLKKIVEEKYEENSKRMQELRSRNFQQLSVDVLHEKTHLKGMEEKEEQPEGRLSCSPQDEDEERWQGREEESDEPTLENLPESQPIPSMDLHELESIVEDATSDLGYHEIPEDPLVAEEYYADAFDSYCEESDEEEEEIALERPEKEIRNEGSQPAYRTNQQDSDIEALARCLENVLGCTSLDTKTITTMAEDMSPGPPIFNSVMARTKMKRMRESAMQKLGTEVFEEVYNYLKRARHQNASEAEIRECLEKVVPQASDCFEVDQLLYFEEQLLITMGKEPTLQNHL
Method: as §4

Abl (H396P) (h) = Abl (H396P) (h) (Homo sapiens, UniProt P00519, H396P); assay: Kinase Profiler; type: biochemical
Method: as §4

PI3KC2g(h) = PI3KC2g(h) (Homo sapiens, UniProt O75747); assay: Kinase Profiler; type: biochemical
Method: as §4

PKA(h) = PKA(h) (Homo sapiens, UniProt P17612); assay: Kinase Profiler; type: biochemical
Method: as §5

Adenosine A1 = Adenosine A1 (Homo sapiens, UniProt P30542); assay: Safety screen; type: binding
Adenosine A1, sequence (P30542 whole entry): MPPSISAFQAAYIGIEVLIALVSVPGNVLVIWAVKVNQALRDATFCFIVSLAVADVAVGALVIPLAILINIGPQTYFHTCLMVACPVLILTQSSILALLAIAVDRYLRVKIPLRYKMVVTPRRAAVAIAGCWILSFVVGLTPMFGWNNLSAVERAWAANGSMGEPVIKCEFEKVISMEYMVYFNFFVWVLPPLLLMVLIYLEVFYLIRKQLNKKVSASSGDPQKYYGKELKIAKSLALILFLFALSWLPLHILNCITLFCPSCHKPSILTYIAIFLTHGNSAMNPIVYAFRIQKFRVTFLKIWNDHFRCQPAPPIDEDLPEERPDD
Method: as §4

MSSK1(h) = MSSK1(h) (Homo sapiens, UniProt Q9UPE1); assay: Kinase Profiler; type: biochemical
Method: as §5

[2] = test system: Glycine, Strychnine-Sensitive; assay: Safety screen; type: binding, rat
RHOG = target: T1, RHOG (Homo sapiens, UniProt P84095); assay: GEF-stimulated nucleotide exchange; type: biochemical; parameters: dose or concentration left out as unconfirmed
T1 construct: Full-length RAC2, RHOG, RHOA and CDC42 were purified as previously described; made in house
T1 sequence (P84095 whole entry): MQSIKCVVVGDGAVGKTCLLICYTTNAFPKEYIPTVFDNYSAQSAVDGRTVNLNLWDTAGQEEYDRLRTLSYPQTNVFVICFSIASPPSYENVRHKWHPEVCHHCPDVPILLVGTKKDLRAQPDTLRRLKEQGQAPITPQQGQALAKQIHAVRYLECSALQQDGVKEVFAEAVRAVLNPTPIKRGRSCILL
Text: (§1) Figure 4 A41 selectively impairs RAC protein activation (A) Representative surface plasmon resonance (SPR) sensograms of binding of immobilized RHOA or CDC42 with indicated increasing concentrations of A41 (N > 3). (B) Effect of A41 on GEF-stimulated RAC2, RHOG, RHOA, and CDC42 nucleotide exchange. […] Kobs is expressed as mean ± SEM. ∗p < 0.001 vs. control. (C) Effect of A41 on RAC1 G30S activation. […] The GEF TRIO was used to induce nucleotide exchange (N = 3). Data are expressed as mean ± SEM. (D) Immunoblot analysis and associated quantification of RAC-GTP level and total RAC expression in NIH-3T3 fibroblasts expressing RAC wild-type (RAC1 WT) or RAC1 oncomutants (RAC1 P29S and RAC1b) in the absence (Ctrl) and presence of A41 (10 μM). RAC activation was measured as the ratio of RAC-GTP to total RAC and expressed relative to Ctrl condition. Data are presented as mean ± SEM. ∗∗∗p < 0.001 vs. controls.
(§2) Full-length RAC1 carrying a 6xHis tag in C-terminus was purified as previously described.[64] […] Specific exchange activity toward RHOA determined by fluorescence kinetics is 0.04 s^−1M^−1.
(§3) Nucleotide exchange kinetics were measured by recording the increase in fluorescence following the association of mant-GTP on GDP-bound RHO protein or the decay in fluorescence following the dissociation of mant-GDP pre-loaded onto the RHO protein (λEx = 360 nm, λEm = 440 nm) as previously described.[39] […]

RAC2 = target: T2, RAC2 (Homo sapiens, UniProt P15153); assay: GEF-stimulated nucleotide exchange; type: biochemical; parameters: dose or concentration left out as unconfirmed
T2 construct: Full-length RAC2, RHOG, RHOA and CDC42 were purified as previously described; made in house
Text: as §1, §2, §3

[3] = test system: Protein Ser/Thr Kinase, PKC, Non- Selective; assay: Safety screen; type: biochemical, rat
Method: as §4

JAK1(h), sequence (P23458 whole entry): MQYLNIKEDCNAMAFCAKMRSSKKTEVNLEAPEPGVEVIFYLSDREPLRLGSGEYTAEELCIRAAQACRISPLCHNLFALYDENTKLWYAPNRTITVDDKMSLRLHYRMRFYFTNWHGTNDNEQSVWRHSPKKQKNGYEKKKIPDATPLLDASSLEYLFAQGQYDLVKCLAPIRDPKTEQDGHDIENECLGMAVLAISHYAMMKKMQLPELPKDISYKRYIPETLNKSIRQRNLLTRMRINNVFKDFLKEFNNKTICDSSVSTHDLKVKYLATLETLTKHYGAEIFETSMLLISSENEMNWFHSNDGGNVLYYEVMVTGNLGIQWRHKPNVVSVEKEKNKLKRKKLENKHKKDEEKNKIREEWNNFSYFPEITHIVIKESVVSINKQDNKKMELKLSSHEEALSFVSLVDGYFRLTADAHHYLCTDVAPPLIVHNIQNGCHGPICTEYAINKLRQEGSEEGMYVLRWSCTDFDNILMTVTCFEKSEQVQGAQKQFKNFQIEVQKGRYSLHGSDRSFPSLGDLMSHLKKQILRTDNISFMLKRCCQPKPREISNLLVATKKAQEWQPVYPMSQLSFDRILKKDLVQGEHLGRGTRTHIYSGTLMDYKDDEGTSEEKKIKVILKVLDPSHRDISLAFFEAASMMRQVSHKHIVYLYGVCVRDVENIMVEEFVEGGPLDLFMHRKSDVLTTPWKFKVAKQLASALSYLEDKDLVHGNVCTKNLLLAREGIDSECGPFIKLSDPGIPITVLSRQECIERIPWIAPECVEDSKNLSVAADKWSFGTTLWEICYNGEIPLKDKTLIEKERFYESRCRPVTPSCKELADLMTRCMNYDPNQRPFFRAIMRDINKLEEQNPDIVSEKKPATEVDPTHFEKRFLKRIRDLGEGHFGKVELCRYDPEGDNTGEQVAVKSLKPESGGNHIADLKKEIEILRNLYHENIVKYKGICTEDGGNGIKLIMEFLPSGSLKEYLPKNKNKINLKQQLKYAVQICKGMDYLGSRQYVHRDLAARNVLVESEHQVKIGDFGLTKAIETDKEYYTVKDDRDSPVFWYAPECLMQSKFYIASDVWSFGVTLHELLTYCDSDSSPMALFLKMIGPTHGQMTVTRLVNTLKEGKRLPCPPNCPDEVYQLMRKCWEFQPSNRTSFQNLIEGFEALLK

## COc1ccc(OC)c(NS(=O)(=O)c2ccc(NC(=O)CCSc3ccc(C)cc3)cc2)c1 [Compound A41]
[1]
  % inh.: -12%
JAK1(h)
  Activity(%): 99%
MST2(h)
  Activity(%): 88%
SAPK2a(h)
  Activity(%): 100%
MYO3B(h)
  Activity(%): 106%
CDK14/cyclinY(h)
  Activity(%): 89%
NEK11(h)
  Activity(%): 99%
Abl (H396P) (h)
  Activity(%): 92%
PI3KC2g(h)
  Activity(%): 114%
PKA(h)
  Activity(%): 84%
Adenosine A1
  % inh.: 2%
MSSK1(h)
  Activity(%): 125%
[2]
  % inh.: -1%
RHOG
  TRIO-induced RHOG activation: no effect
RAC2
  TRIO-induced activation of RAC2: reduced
[3]
  % inh.: 48%
